Data taken from ChEMBL document CHEMBL1201862, “PubChem BioAssay data set” (2004).
Activity calls are given as the source filed them.

Legend:
[1] = P. falciparum late gametocyte killing, dose response, luminescence (AID 1117278); assay type: functional, cell-based;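 note: gametocytes exposed to compound for 24 hours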
[2] = Jurkat T cell cytotoxicity, dose response, cytotoxicity control for P. falciparum gametocyte viability project, luminescence (AID 1117277); assay type: functional, cell-based;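 note: potency reflects loss of cellular ATP meaning fewer viable cells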
[3] = inhibitors of intracellular T. cruzi replication, confirmation, NIH3T3 host cells, beta-gal luminescence (AID 2044); assay type: functional, cell-based;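 note: intracellular parasites grown in NIH/3T3 mouse fibroblasts as host cells; luminescent beta-galactosidase reporter signal from transgenic T. cruzi replicating inside host cells; inhibitors lower the luminescence signal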
[4] = cytotoxicity toward NIH3T3 fibroblasts, dose response, counter-screen, cell-based, ATP luminescence, mouse fibroblasts (AID 2010); assay type: functional;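 note: cells exposed to compound for about 90 hours before reading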
[5] = test system: INS1; experiment: beta cell apoptosis inhibitors, cytokine rescue, dose response, luminescence, retest (AID 449756); assay type: functional, cell-based; details: Rattus norvegicus;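 note: cell death triggered by IL-1 beta plus TNF-alpha plus IFN-gamma mixture; protective hits raise ATP signal compared with cytokine alone wells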
[6] = cells
[7] = molecular target: Procathepsin L (Homo sapiens, UniProt P07711); experiment: cathepsin L inhibitors, dose response, counter-screen for M1/M17 aminopeptidase inhibitor project, biochemical, QFRET, 1536-well (AID 2214)
[8] = molecular target: T1, Leucine aminopeptidase (Plasmodium falciparum 3D7, UniProt Q8IL11); experiment: P. falciparum M17LAP inhibitors, primary screen, biochemical, fluorogenic H-Leu-NHMec substrate, 1536-well (AID 1619); assay type: functional
T1 sequence (Q8IL11 whole entry): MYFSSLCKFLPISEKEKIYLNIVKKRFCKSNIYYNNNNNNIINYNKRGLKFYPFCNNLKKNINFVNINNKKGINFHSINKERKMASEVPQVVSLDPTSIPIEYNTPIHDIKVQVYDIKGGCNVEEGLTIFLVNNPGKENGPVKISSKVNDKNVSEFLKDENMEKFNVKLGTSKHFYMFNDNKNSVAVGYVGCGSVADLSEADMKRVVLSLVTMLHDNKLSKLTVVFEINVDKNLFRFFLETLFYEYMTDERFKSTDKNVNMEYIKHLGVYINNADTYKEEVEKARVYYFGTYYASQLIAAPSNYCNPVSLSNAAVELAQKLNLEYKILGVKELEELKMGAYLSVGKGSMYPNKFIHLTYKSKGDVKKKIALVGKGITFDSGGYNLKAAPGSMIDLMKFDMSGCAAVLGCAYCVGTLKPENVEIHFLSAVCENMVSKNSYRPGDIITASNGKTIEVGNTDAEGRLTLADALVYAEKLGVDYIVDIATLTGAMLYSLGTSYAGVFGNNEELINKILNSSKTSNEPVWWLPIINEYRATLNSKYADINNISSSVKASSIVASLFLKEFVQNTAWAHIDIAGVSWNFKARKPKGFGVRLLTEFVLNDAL

[9] = molecular target: T2, Aspartyl aminopeptidase (Plasmodium falciparum 3D7, UniProt Q8I2J3); experiment: Counterscreen for inhibitors of M1 and M17 aminopeptidases: QFRET-based biochemical high throughput dose response assay for inhibitors of the Plasmodium falciparum M18 Aspartyl Aminopeptidase (PFM18AAP). [Related PubChem assays: 1619 (Screening assay (M17LAP inhibitors).), 1445 (Screening assay (M1AAP inhibitors).)]
T2 sequence (Q8I2J3 whole entry): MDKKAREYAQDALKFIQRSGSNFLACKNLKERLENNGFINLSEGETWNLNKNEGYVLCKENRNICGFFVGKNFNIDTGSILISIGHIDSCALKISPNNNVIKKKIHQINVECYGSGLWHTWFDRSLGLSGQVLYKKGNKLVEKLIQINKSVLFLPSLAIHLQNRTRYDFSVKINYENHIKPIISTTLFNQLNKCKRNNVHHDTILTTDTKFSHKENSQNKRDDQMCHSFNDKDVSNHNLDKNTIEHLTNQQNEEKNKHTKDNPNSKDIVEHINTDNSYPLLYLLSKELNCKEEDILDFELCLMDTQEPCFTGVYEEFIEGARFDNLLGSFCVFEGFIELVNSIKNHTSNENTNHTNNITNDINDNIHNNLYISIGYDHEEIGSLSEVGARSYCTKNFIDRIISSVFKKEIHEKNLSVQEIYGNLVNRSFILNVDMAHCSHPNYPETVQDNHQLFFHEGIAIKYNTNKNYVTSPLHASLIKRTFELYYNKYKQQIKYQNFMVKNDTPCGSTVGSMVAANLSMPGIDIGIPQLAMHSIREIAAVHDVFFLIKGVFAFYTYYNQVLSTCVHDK

[10] = molecular target: Mothers against decapentaplegic homolog 3 (Homo sapiens, UniProt P84022); experiment: Smad3 binding inhibitors, lysate ELISA, dose response, cell lysate, secondary confirmation, chemiluminescent ELISA, HEK293 lysate (AID 1058); assay type: functional
[11] = molecular target: Mitogen-activated protein kinase 10 (Homo sapiens, UniProt P53779); experiment: Dose response biochemical screening assay for inhibitors of c-Jun N-Terminal Kinase 3 (JNK3). [Related pubchem assays: 746 ]
[12] = molecular target: Paired box protein Pax-8 (Homo sapiens, UniProt Q06710); experiment: inhibitors of PAX8-driven TPO luciferase reporter, dose response, RMG-I cells, cherry-pick (AID 687027); assay type: functional, cell-based;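 note: luciferase reporter driven by Pax8 target thyroperoxidase promoter measured by SteadyGlo luminescence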
[13] = molecular target: T3, Microphthalmia-associated transcription factor (Homo sapiens, UniProt O75030); experiment: TRPM1 promoter luciferase signal decrease, dose response, MITF inhibitor project, cell-based, SK-MEL-5, cherry-picked, set 3 (AID 493073); assay type: functional
T3 sequence (O75030 whole entry): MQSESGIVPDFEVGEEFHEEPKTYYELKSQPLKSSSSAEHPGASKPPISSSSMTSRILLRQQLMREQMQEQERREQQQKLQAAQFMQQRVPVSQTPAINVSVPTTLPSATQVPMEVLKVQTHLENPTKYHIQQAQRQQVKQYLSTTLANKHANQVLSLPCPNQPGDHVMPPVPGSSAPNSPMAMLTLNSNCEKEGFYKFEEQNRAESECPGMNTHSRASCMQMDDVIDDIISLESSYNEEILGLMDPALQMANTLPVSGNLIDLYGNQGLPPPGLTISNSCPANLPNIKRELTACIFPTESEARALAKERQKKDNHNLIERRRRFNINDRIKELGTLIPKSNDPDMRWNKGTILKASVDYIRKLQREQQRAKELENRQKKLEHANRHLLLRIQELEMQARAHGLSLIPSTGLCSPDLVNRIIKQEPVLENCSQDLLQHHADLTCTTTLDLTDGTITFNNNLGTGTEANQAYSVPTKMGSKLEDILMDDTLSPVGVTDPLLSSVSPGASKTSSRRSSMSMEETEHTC

[14] = A Cell Based Secondary Assay To Explore Cytotoxicity of Compounds that Sensitize Mycobacterium Tuberculosis to Beta-Lactam Antibiotics.; assay type: functional

Sequence of Procathepsin L (P07711 whole entry): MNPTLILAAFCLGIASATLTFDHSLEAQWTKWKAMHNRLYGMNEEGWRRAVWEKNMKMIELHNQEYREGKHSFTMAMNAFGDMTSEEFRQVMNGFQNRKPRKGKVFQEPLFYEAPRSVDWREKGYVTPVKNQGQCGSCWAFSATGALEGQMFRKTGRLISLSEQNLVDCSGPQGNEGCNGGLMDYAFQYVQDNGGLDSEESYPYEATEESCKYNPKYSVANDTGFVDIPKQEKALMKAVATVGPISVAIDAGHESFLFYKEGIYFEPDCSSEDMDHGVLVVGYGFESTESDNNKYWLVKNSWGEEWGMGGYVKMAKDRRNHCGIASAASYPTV
Sequence of Mothers against decapentaplegic homolog 3 (P84022 whole entry): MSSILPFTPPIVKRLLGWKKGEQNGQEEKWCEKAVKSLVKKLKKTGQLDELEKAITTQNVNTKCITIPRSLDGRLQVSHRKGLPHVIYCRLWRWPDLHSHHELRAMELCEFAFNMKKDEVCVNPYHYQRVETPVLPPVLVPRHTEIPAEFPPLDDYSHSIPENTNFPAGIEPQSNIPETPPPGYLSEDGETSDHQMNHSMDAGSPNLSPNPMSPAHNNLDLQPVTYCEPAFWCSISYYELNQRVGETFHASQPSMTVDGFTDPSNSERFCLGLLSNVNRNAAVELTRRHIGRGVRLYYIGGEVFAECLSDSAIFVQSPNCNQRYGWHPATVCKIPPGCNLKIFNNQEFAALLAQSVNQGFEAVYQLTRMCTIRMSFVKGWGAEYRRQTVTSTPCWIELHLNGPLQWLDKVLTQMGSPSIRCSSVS
Sequence of Paired box protein Pax-8 (Q06710 whole entry): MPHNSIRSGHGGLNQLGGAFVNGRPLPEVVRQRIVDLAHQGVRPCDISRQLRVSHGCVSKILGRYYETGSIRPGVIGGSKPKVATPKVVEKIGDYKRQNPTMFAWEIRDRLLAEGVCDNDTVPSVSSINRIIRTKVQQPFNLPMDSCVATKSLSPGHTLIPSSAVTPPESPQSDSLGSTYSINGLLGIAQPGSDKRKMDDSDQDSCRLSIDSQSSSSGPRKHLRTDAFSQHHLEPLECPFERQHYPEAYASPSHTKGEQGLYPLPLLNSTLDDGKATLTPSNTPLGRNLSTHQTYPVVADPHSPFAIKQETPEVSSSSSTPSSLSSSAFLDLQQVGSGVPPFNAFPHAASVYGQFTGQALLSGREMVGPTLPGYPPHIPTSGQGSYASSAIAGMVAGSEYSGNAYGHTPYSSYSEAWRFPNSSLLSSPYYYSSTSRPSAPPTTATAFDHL
Sequence of Mitogen-activated protein kinase 10 (P53779 whole entry): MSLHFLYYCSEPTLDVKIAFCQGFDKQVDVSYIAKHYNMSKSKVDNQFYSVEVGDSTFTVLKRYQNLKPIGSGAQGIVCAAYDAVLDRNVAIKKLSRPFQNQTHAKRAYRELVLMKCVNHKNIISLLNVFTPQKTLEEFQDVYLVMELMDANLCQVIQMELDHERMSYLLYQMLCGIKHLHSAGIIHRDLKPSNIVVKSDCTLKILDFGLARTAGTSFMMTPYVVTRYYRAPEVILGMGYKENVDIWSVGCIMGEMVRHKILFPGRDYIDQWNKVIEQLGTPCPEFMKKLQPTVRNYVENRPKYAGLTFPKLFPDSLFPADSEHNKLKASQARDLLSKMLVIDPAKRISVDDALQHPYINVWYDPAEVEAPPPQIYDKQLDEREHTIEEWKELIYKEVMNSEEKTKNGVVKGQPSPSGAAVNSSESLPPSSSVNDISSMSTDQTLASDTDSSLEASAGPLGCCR

With `CCCOC(=O)c1ccc(-[n+]2c(-c3ccccc3)cc(-c3ccccc3)cc2-c2ccccc2)cc1.[O-][Cl+3]([O-])([O-])[O-]` the IC50 [1] was > 109 µM (inactive), the IC50 [2] was 6.87 µM (active) and the EC50 [3] was < 0.1 µM (active). For the same compound, the EC50 [4] was > 60 µM (not active), the AC50 [5] was 1.82 µM (active) and the EC50 [6] was 0.1 µM (active).

With `COC(=O)c1c(-c2cc(C)ccc2C)csc1NC(=O)C1CC=CCC1C(=O)O` (stereo not drawn) the IC50 [7] was > 59.6 µM (not active), the IC50 [8] was < 1 µM (active) and the IC50 [9] was > 73.5 µM (not active).

For `COc1ccc(C(c2cc3c(cc2O)OCO3)N2CCOCC2)c(OC)c1` (stereo not drawn), the IC50 [10] was > 40 µM (not active).

For `COC(=O)c1c(-c2cccs2)csc1NC(=O)CN1CCOCC1`, the IC50 [11] was 55.7 µM (not active).

In the case of `Cc1sc(NC(=O)C2CC(Cl)=CCC2C(=O)O)c(C#N)c1C` (stereo not drawn), the IC50 [7] is reported as > 59.6 µM (not active), the IC50 [8] is reported as 1.73 µM (active) and the IC50 [9] is reported as > 73.5 µM (not active).

For `C=C1C(=O)O[C@@H]2[C@H]1[C@@H](OC(=O)/C(C)=C/C)C/C(C)=C\C(=O)/C=C(\C)[C@@H]2O`, the AC50 [12] was 4.03 µM (active), the AC50 [13] was 7.07 µM (active) and the CC50 [14] was 4.26 µM (active).

For `O=C1C=CC(=C(c2ccc(O)c(O)c2)c2ccccc2S(=O)(=O)O)C=C1O` [PYROCATECHOL VIOLET], the IC50 [10] was 3.28 µM (not active).
